Measured values published in PMC8125408, “Polyoxazolines with a Vicinally Double-Bioactivated Terminus for Biomacromolecular Affinity Assessment” (Sensors (Basel, Switzerland), 2021).
Where two headings read alike, the source gives them in different places.

Assays:
Concanavalin A (ConA) [1] = molecular target: T1, Concanavalin A (ConA) (Canavalia ensiformis, UniProt P02866); conditions: HBS150T pH 7.4, 25 °C, ConA 118 to […], no aff. = no affinity could be determined
Description: Interactions between polymers and Concanavalin A (ConA) were measured by SPR using a […] ®4SPR system (Reichert Technologies). Measurements were performed at 25 °C using HBS150T (10 mM HEPES (pH 7.4), 150 mM NaCl, 3.4 mM EDTA, 0.005% (v/v) Tween 20) as running buffer. For the immobilization of polymers containing a thioether group on the bare gold sensor chip surface, the polymers were injected onto a sensor for 8 min at a flow rate of 10 µL/min to cause polymer coating to a final density of 1000 resonance units. Remaining unspecific protein binding sites on the bare gold surface were saturated by the injection of 500 µM BSA. Purified recombinant ConA was used as an analyte at four concentrations, ranging from 118 to 944 nM. The flowrate for the acquisition of interaction data was set to 25 µL·min^−1 in all experiments. Association was measured for 180 s, then dissociation was initiated by perfusing running buffer, and the dissociation phase was monitored for 300 s. Regeneration of the chip surface was performed by injecting two 60 s pulses of 100 mM glycine (pH 2.5) at a flow rate of 100 µL·min^−1. Interaction data were analyzed using the software TraceDrawer version 1.8.1 (Ridgeview Instruments AB, Uppsala, Sweden), applying a simple Langmuir-type 1:1 interaction model and using global fitting for the rate constants. Association rate constant kon values and dissociation rates constant koff values were obtained by fitting the data of individual experiments. Equilibrium binding KD values were deduced using the equation KD = koff/kon. All SPR experiments were performed in at least three independent experiments.
Preparing the samples is identical to SAW measurements. The SPR measuring channels were coated with polymer solution, and unoccupied gold surface was saturated with BSA.

Concanavalin A (ConA) [2] = molecular target: T1, Concanavalin A (ConA); conditions: PBS, 25 °C, four ConA concentrations 118 to […], no aff. = no affinity of the conjugate to the lectin could be determined
Description: SAW measurements were performed with apparatus from SAW Instruments GmbH, which included an autosampler and allowed for measuring of protein adsorption and KD value determination. Measurements were performed at 25 °C using PBS as a running buffer. For the immobilization of polymers containing a thioether group on the bare gold sensor chip surface 30 µL of polymers per lane (concentration: 10 µg·mL^−1 in PBS) were preincubated onto the sensor chip for 1 h with an external application mask. Remaining unspecific protein binding sites on the bare gold surface were saturated by the injection of 500 µM BSA. Purified recombinant ConA was used as an analyte at four concentrations, ranging from 118 to 944 nM. The flow rate for the acquisition of interaction data was set to 40 µL·min^−1 in all experiments. Association was measured for 300 s, then dissociation was initiated by perfusing the running buffer, and the dissociation phase was also monitored for 300 s. Regeneration of the chip surface was performed by injection of two 60 s pulses of 100 mM glycine (pH 2.5) at a flow rate of 100 µL·min^−1. Interaction data were analyzed using the FitMaster add-in (SAW Instruments GmbH) of Origin software version 8.5 (OriginLab Corporation), applying a simple Langmuir-type 1:1 interaction model. Association rate constant kon values and dissociation rates constant koff values were obtained by fitting data of individual experiments. Equilibrium binding KD values were deduced using the equation KD = koff/kon. […]
Following the preparation of the gold surface with the polymer conjugates and saturation with BSA, the main measurement can be performed by analyzing the binding affinity of the lectin to the functionalized surface. For this, a constant flow of a series of ConA dilutions with defined concentrations of ConA is injected on each channel and the phase change of surface acoustic waves, which are influenced by binding events, is monitored. […] After measuring four different ConA concentrations, the binding and dissociation curves are fitted and the KD value is calculated.

CGGWYKYW-PMeOx20-SEt
no aff.: SPR KD (Concanavalin A (ConA) [1]; Lane 1 (for III: repeat (1))) | SPR KD (Concanavalin A (ConA) [1]; Lane 2 (for III: repeat (1))) | SPR KD (Concanavalin A (ConA) [1]; Lane 3 (for III: repeat (1))) | SPR KD (Concanavalin A (ConA) [1]; Lane 4 (for III: repeat (1))) | SAW KD (Concanavalin A (ConA) [2]; Lane 1) | SAW KD (Concanavalin A (ConA) [2]; Lane 2) | SAW KD (Concanavalin A (ConA) [2]; Lane 3)
